Consider four substances from article PMC11669939, “Impairing protein–protein interactions in an essential tRNA modification complex: An innovative antimicrobial strategy against Pseudomonas aeruginosa” (Journal of Peptide Science, 2024).

For data set [1] the following is noted: cited from earlier work. The text has this: P. aeruginosa (PAE) is a Gram‐negative bacterium that has been ranked by WHO as one out of three pathogens with the highest global priority for the development of novel effective antibacterials.[17] PAE is a major cause of both acute and chronic lung infections, which develop in up to 60%–70% of cystic fibrosis (CF) patients, often leading to a more rapid decline of lung function that turns into greater morbidity and mortality.[18], [19], [20] The misuse of classical antibiotics, whose mechanism of action is usually based on the interaction with a well‐defined ligand binding site, led to an ev ... || These observations supported our hypothesis that PMP1 should be able to bind to YeaZ and consequently reduce its ability to form protein complexes, thus impairing its function. […] Indeed, the PMP2 peptide derives from the PMP1 sequence RIAIGVVQGLAFAL (Arg73‐Leu86) and thus contains the four hot ...

In another data set the test system is P. aeruginosa PAO1. The data set can be described thus: Bacterial growth inhibition assay, P. aeruginosa PAO1. The settings on record: 3, 10, 30 μM; Mueller Hinton Broth, 37°C, OD595 every 15 min; mean of three independent experiments. The format is cell-based, Pseudomonas aeruginosa. The protocol: (§1) Growth inhibition experiments were performed with P. aeruginosa PAO1 strain[37] and Escherichia coli K‐12 MG1655.[38] Cells were grown overnight in 10 ml of LB medium at 37°C with shaking. Overnight cultures were washed twice with phosphate‐buffered saline (PBS) and inoculated to an optical density at 595 nm (OD595) of 0.05 in 10 ml of Mueller Hinton Broth (Sigma‐Aldrich). Aliquots (200 μl) of inoculated medium were distributed in triplicate (technical replicates) in a 96‐Well Cellstar® suspension culture plate (Greiner Bio‐One) and incubated in a Sunrise microplate reader (Tecan Group) at 37°C with constant orbital shaking and real‐time OD595 measurements every 15 min. Three final peptide concentrations were tested: 3, 10, and 30 μM, respectively. Controls were made by adding sterilized water, in the same amount of the added peptide volumes. Three independent replicates were performed. Data were reported by plotting, at each time point, the mean OD595 values of the three replicates with error bars indicating Standard Error of Mean (SEM).

In data set [2] the test system is Escherichia coli K‐12 MG1655. The data set is described as follows: Bacterial growth inhibition assay, E. coli MG1655. The settings on record: 3, 10, 30 μM; Mueller Hinton Broth, 37°C, OD595 every 15 min; mean of three independent experiments. It is filed as cell-based. As for the experimental part: as §1
Data set [3] concerns YeaZ. The data set can be described thus: Intrinsic tryptophan fluorescence (ITF) binding assay. Details: species or system Pseudomonas aeruginosa. The protocol: (§2) Briefly, the YeaZ protein was produced in E. coli M15[pREP4] strain using a pQE30‐PaYeaZ plasmid. Cells were grown in LB medium at 37°C till the OD600 reached 0.6, then the protein expression was induced by isopropyl‐β‐D‐thiogalactoside (IPTG) at a final concentration of 0.1 mM for 5 h at 30°C. After cell collection, the pellet was resuspended in a lysis buffer containing 50 mM phosphate buffer, 150 mM NaCl, and 10 mM imidazole, pH 7.4. Cells were subsequently disrupted by a French press disruptor (20 bar pressure), and one tablet of protease inhibitor (Roche), 10 mg/ml DNase I, and 5 mg/ml Ribonuclease A were added to the solution. After centrifugation at 18,000 rpm for 45 min, the supernatant was collected, filtered, and loaded onto a Ni‐NTA Superflow (GE Healthcare Life Science). YeaZ was further purified using a Superdex 75 gel filtration column (GE Healthcare Life Science) in buffer 50 mM Hepes pH 7.4, 150 mM NaCl at a concentration of 0.5 mg/ml, in which freshly purified protein exists as a monomer in solution, and stored at −80°C.
Spectrofluorometric assays were performed on a Varian Cary Eclipse fluorescence spectrophotometer (Agilent Technologies) at 20°C. YeaZ was used at a final concentration of 0.065 mg/ml in buffer Hepes 50 mM pH 7.4, NaCl 500 mM, 10% glycerol (with 2% v/v DMSO as control), while the peptides were used at a final concentration of 200 μM. We used an excitation wavelength of 280 nm and registered the fluorescence emission spectra between 300 and 400 nm. Measures were performed in triplicates.
To evaluate the binding of PMP2 in vitro, the recombinant His‐tagged YeaZ protein from PAE PAO1 was produced in E. coli and purified with final purity and yield values adequate for the binding studies. Compound PMP2 was dissolved to 10mM with 100% DMSO and tested in in vitro assays at a final concentration of 200 μM (corresponding to a DMSO concentration of 2%). The interaction with the protein was first evaluated by exploiting the intrinsic fluorescence of the tryptophan residues (ITF) contained in the protein's amino acid sequence. […] Analytical size exclusion chromatography (SEC) was then run to evaluate the peptide's ability to disrupt or interfere with the formation of the homodimers. The YeaZ protein alone eluted at a volume corresponding mainly to its dimeric form (estimated molecular weight of 51 kDa of the main peak) and the effect of 2% v/v DMSO was irrelevant.
(§3) PMP3 was then dissolved to 1mM in MilliQ water and evaluated in vitro in ITF assays. […] To further investigate the binding with PMP3, we performed a concentration‐response curve increasing the amounts of peptide. […] We thus performed an MST assay exploiting the perturbation of thermal diffusion at 650 nm plotted against the peptide concentration. The MO.

Data set [4] can be described thus: Solubility, hydrophobicity and aggregation of the peptides. The format is physicochemical.
The conditions of data set [5]: previous work; cited from earlier work. From the text:
Since the PPIs and hot spots involved in the PAE YeaZ homodimer are conserved in the YeaZ/YgjD heterodimer,[21], [25], [26] we hypothesized that PMP1 might also represent a good starting point to target the YeaZ/YgjD interface. In this work, we report our studies focused on the PPIs involved in the formation of the TC‐complex and their possible inhibition by PMP1 derivatives. The final aim was the interference of t^6A37 biosynthesis and, consequently, the achievement of bacterial growth impairment.

In another data set the test system is YeaZ homodimer. The data set can be described thus: Analytical size exclusion chromatography (SEC). The format is binding, Pseudomonas aeruginosa. The settings on record: peptide 200 μM, 2% DMSO, YeaZ 0.5 mg/ml. The protocol: as §2, with “YeaZ was further purified using a Superdex 75 gel filtration column (GE Healthcare Life Science) in buffer 50 mM Hepes pH 7.4, 150 mM NaCl at a concentration of 0.5 mg/ml, in which freshly purified protein exists as a monomer in solution, and stored at −80°C.” left out
To evaluate the binding of PMP2 in vitro, the recombinant His‐tagged YeaZ protein from PAE PAO1 was produced in E. coli and purified with final purity and yield values adequate for the binding studies. […] The interaction with the protein was first evaluated by exploiting the intrinsic fluorescence of the tryptophan residues (ITF) contained in the protein's amino acid sequence. […]

The nature of data set [6]: Circular dichroism analysis. The settings on record: 20 μM, 20°C. It is filed as physicochemical. As for the experimental part: CD spectra were acquired on a JASCO J‐715 spectropolarimeter in a 1‐mm quartz cuvette, under N2, between 260 and 185 nm, at 20°C with 0.5 nm intervals, and 3 measurements were accumulated (settings: 100 mdeg sensitivity, continuous scan mode, 50 nm/min scan speed, 2 s response, bandwidth 1.0 nm). The resulting signal was converted from ellipticity (mdeg) to molar ellipticity [Q] in deg · cm^2 · dmol^−1. Peptides were solubilized in 100% MilliQ water or 1:1 water/TFE at 20 μM concentration. The helical propensity [R] was calculated using the R‐value, i.e. the ratio between molar ellipticity values at 222 and 207 nm, where R = 1 is defined as a reference for an ideal α‐helix.
A general note: Circular dichroism is the unequal absorption of left and right circularly polarised light.

Data set [7] addresses YeaZ. The data set is described as follows: Microscale thermophoresis (MST) assay. It is filed as binding, Pseudomonas aeruginosa. The settings on record: 50 nM RED‐NHS labeled YeaZ, Hepes 50 mM pH 7.4, NaCl 500 mM, 10% glycerol, 0.05% Tween20, 24°C, 650 nm, triplicates; saturation plateau not reached, precise value not calculable. The protocol:
Microscale thermophoresis (MST) experiments were performed using a Monolith X apparatus (NanoTemper Technologies GmbH, Munich, Germany) and analyzed with the MO. Affinity Analysis software (NanoTemper Technologies GmbH). Briefly, YeaZ was labeled with the red fluorescent dye RED‐NHS 2° generation according to manufacturer instructions. MST measurements were performed in triplicates at 24°C on in Hepes 50 mM pH 7.4, NaCl 500 mM, 10% glycerol, and 0.05% Tween20, using premium‐treated glass capillaries and at a fixed concentration of 50 nM YeaZ. Results were merged and analyzed.
as §3

Data set [8] deals with YeaZ protein from P. aeruginosa PAO1, recombinant His-tagged (P. aeruginosa PAO1). The data set can be described thus: SEC; analytical, Superdex75 Increase 10/300 GL, Hepes 50 mM pH 7.4, NaCl 500 mM, 10% glycerol; YeaZ 0.5 mg/ml (2% DMSO as control); peptide at 200 μM. A general note: In gel filtration, larger molecules generally elute earlier.

As to AIAIGVVQGLAFAL [PMP1], in data set [1], the hydrophobicity result is “too hydrophobic”.

As to AIAIGVVQGLAFAL‐GG‐KKKG [PMP2], the “growth inhibition of PAE PAO1” value in the data set on P. aeruginosa PAO1 is given as “no effect of growth inhibition could be observed”. In [2], the “growth inhibition of E. coli MG1655” value is on record as “no effect of growth inhibition could be observed”. In addition, the “fluorescence emission of YeaZ in presence of peptide (ITF)” value in the data set on YeaZ [3] (peptide 200 μM, 2% DMSO, YeaZ 0.065 mg/ml, Hepes 50 mM pH 7.4, NaCl 500 mM, 10% glycerol, 20°C, excitation 280 nm, emission 300-400 nm, triplicates) is “decreased fluorescence emission spectrum compared to the protein alone”. The solubility result in [4] (any tested solvent (H2O, 100% DMSO, 10 mM NaOH)) is reported as “poor solubility”. Moreover, the aggregation result in data set [4] (in solution at higher concentrations, prevented evaluation of a dose–response constant) is “formation of aggregates in solution at higher concentrations”. For the same substance, the “helicity outside the protein environment” value in data set [5] is on record as “maintain helicity outside the protein environment”. Further, the “estimated molecular weight of the YeaZ dimeric peak (SEC)” value in the data set on YeaZ homodimer (Hepes 50 mM pH 7.4, NaCl 500 mM, 10% glycerol, Superdex75 Increase 10/300, YeaZ alone 51 kDa) is 49 kDa. Moreover, the “effect on the YeaZ dimeric peak (SEC)” value in the data set on YeaZ homodimer (pH 7.4) is on record as “slight shift of the dimeric peak towards a smaller molecular weight”. In [1] (by fine‐tuning of the environmental conditions), the “self‐assembly” value is “capable of self‐assembling in helical nanofibers and 2D sheets as well as forming hydrogels”.

Regarding “AIAIGVVQGLAFAL‐GG‐[R‐Ahx‐R]4‐Ahx‐β‐Ala [PMP3]”, in the data set on P. aeruginosa PAO1, the “growth inhibition of PAE PAO1” value is recorded as “significant concentration‐dependent decrease in the growth rates”. Besides, the “growth inhibition of E. coli MG1655” value in data set [2] is recorded as “much weaker than those observed for PAO1”. Besides, the “secondary structure by CD” value in [6] (1:1 water/TFE) is recorded as “a clear α‐helix conformation was observed”; in [6] (100% MilliQ water), “did not show any particular secondary structure”. Besides, in data set [6] (ratio of molar ellipticity at 222 and 207 nm (R = 1 ideal α‐helix), 1:1 water/TFE), the “helical propensity R” value was 0.78. The “intrinsic fluorescence of the peptide” value in the data set with YeaZ [3] (above a concentration threshold, at 310–340 nm, prevented concentration‐response evaluation) is “higher than the intrinsic fluorescence of the YeaZ protein”. Further, the “fluorescence intensity of YeaZ in presence of peptide (ITF)” value with YeaZ [3] (peptide 200 μM, from 1mM in MilliQ water, YeaZ 0.065 mg/ml, Hepes 50 mM pH 7.4, NaCl 500 mM, 10% glycerol, 20°C, excitation 280 nm, triplicates) is “reduction of the fluorescence intensity”. Further, the “shift of emission towards shorter wavelengths (ITF), wavelength” value with YeaZ [3] (peptide 200 μM, from 1mM in MilliQ water, YeaZ 0.065 mg/ml, pH 7.4, 20°C, slight shift) is “around 330 nm”. Also, the “Kd (MST)” value on YeaZ [7] is “low micromolar”.

In the case of “YeaZ protein from P. aeruginosa PAO1, recombinant His-tagged (from UniProt A0A0H2ZEW0 1-226) (natural protein)”, the stoichiometry N in [8] amounted to 2.

Usually stoichiometry N stands for a count of units in the complex or per binding partner.
